From US5583142A, “Analgesic and nootropic drugs” (priority 1992, dated 1996)
Several values for one entry are separate records, joined by “and”; a condition that tells them apart may be missing. Equal entries are not always repeated. Where two headings read alike, the source gives them in different places.

Experiments:
[1] = guinea-pig paw-pressure test; assay type: in vivo; conditions: for paw-pressure: guinea-pig, 20 mg/kg i.p.
Procedure: (§1) The analgesic action was detected in mouse, rat, guinea pig and dog. The mouse was subjected to hot plate and writhing tests; the rat to tail-flick and paw-pressure tests; the guinea pig to paw-pressure test only; the dog to the test described by Vainio et al. [J. Vet. Pharmacol. Ther., 12, 225-231 (1989)] using an electric stimulation. Consequently, the claimed compounds were tested with pain being induced by stimuli of different nature: thermal (hot plate and tail flick), chemical (writhing by acetic acid), mechanical (paw pressure) and electrical (cutaneous stimulation).
Effect of SM21 and PG9 in guineapig pawpressure test. *P < 0.01; P < 0.0
in comparison with saline controls. The number of guineapig is in […]

[2] = assay type: in vivo, mouse
Procedure: as §1
(§2) Potency, efficacy and toxicity of SM21, PG9 and SM32 in comparison with
(§3) four principal reference analgesic drugs tested in mouse. As analgesic

[3] = mouse rota-rod test (16 r.p.m.)
From the text: All products tested to detect their antinociceptive activity had been previously tested by the rota-rod test to determine their maximum utilizable dose in analgesic tests. In fact, by this test it is possible to determine the highest dose of drug not impairing the normal performance of animals in a test that simultaneously evaluates motor coordination, equilibrium, resistance to fatigue, and muscle strength. This test is meant to evaluate the capability of mice to stay balanced on a rotating rod [cf. Vaught et al., Neuropharmacology, 24 (3) 211-216 (1985)].
The calculated doses were those used in the two analgesic tests on mice.

rat paw-pressure test = assay type: in vivo; conditions: for paw-pressure: 20 mg/kg i.p.
Procedure: as §1
(§4) As already mentioned, the claimed products were assayed also in rat by the paw-pressure and tail-flick tests.
(§5) Both tests were carried out with the max. doses not impairing the rats normal behaviour. […] The painful stimulus utilized in the paw-pressure test involved the animal consciousness to a much greater extent than the stimulus used in the tail-flick test, in fact, the type and anatomic localization of the latter mainly involved a spinal response.
(§6) Both tests on rats were carried out with the max. doses not altering the behaviour of the treated animals.

[4] = mouse acetic acid writhing test; assay type: in vivo
Procedure: as §1
The claimed molecules, chosen as examples, were also assayed in mice by the writhing test (Table 4). The test is meant to evaluate the products capability to prevent mice writhes ensuing abdominal pains caused by i.p. injection of a 0.6% aqueous solution of acetic acid.
Acetic acid solution = 0.6% v/v.

in vivo = conditions: mouse, sc
From the text: as §2, §3

rat tail-flick test = assay type: in vivo; conditions: for tail-flick: 20 mg/kg i.p.
Procedure: as §1, §4, §5, §6
The test was performed using th

CC(C(=O)O[C@H]1C[C@H]2CC[C@@H](C1)N2C)c1ccc(Br)cc1 (stereo partly drawn) [PG-9, 3α-Tropanyl 2-(p-bromophenyl)-propionate]
analgesic activity in guinea pig, in words ([1]; guinea pig): active in guinea pig
paw-pressure ([1]; 15 min after treatment): 94.6 ± 4.4 g
paw-pressure ([1]; 30 min after treatment): 83.0 ± 6.8 g
paw-pressure ([1]; 45 min after treatment): 42.8 ± 5.6 g
ANALGESIC ACTIVITY (degree of analgesia, latency on hot plate) ([2]; max. dose not affecting mice behaviour): ++++ (Latency above 35" ++++-)
analgesic activity in mouse, in words ([2]; mouse): active in mouse
analgesic effect (AUC up to 45 min) compared with reference analgesics ([2]; mouse hot plate, FIG. 5, always (s.c. and i.p.)): always more active than all reference analgesics including morphine
Efficacy as analgesic (Morphine = 100), AUC (Area Under Curve) ([2]; mouse, in vivo): 123
Efficacy as analgesic (Morphine = 100), M.E. (Maximum Analgesic Effect) ([2]; mouse, in vivo): 106
hot-plate latency ([2]; mouse, 40 mg/kg i.p., 15 min after treatment): 42.5 ± 2.5 s
hot-plate latency ([2]; mouse, 40 mg/kg i.p., 30 min after treatment): 39.7 ± 2.1 s
hot-plate latency ([2]; mouse, 40 mg/kg i.p., 45 min after treatment): 26.7 ± 3.5 s
hot-plate latency ([2]; mouse, 40 mg/kg s.c., 15 min after treatment): 39.3 ± 3.4 s
hot-plate latency ([2]; mouse, 40 mg/kg s.c., 30 min after treatment): 35.1 ± 2.8 s
hot-plate latency ([2]; mouse, 40 mg/kg s.c., 45 min after treatment): 33.3 ± 2.6 s
rota-rod performance (number of falls in 30 s) ([3]; 40 mg/kg s.c., 15 min after treatment): 1.2 ± 0.5 falls in 30 s
rota-rod performance (number of falls in 30 s) ([3]; 40 mg/kg s.c., 30 min after treatment): 0.8 ± 0.4 falls in 30 s
rota-rod performance (number of falls in 30 s) ([3]; 40 mg/kg s.c., 45 min after treatment): 1.3 ± 0.5 falls in 30 s
rota-rod performance (number of falls in 30 s) ([3]; 45 mg/kg s.c., 15 min after treatment): 2.4 ± 0.8 falls in 30 s
rota-rod performance (number of falls in 30 s) ([3]; 45 mg/kg s.c., 30 min after treatment): 1.3 ± 0.5 falls in 30 s
rota-rod performance (number of falls in 30 s) ([3]; 45 mg/kg s.c., 45 min after treatment): 0.8 ± 0.4 falls in 30 s
rota-rod performance (number of falls in 30 s) ([3]; 50 mg/kg s.c., 15 min after treatment): 2.2 ± 0.6 falls in 30 s
rota-rod performance (number of falls in 30 s) ([3]; 50 mg/kg s.c., 30 min after treatment): 2.7 ± 0.6 falls in 30 s
rota-rod performance (number of falls in 30 s) ([3]; 50 mg/kg s.c., 45 min after treatment): 2.8 ± 0.4 falls in 30 s
activity in paw-pressure test, in words (rat paw-pressure test): inactive in rat
paw-pressure (rat paw-pressure test; 15 min after treatment): 62.2 ± 6.0 g
paw-pressure (rat paw-pressure test; 30 min after treatment): 62.4 ± 4.8 g
paw-pressure (rat paw-pressure test; 45 min after treatment): 62.8 ± 4.2 g
efficacy in writhing test, in words ([4]; mouse): less efficacious than ketorolac, are more efficacious than morphine
number of writhes ([4]; mouse, 40 mg/kg s.c.): 6.1 ± 1.6
Efficacy as analgesic (Morphine = 100) ([4]; mouse, writhing, 40 mg/kg s.c.): 110
percent inhibition ([4]; mouse, writhing, 40 mg/kg s.c.): 82.2%
ED50 ([4]; sc, mouse writhing): 16.3 mg/kg and 34.8 µmol/kg
LD50 (in vivo): 373 µmol/kg
activity in tail-flick test, in words (rat tail-flick test): inactive
tail-flick (rat tail-flick test; 15 min after treatment): 3.3 ± 0.2 s
tail-flick (rat tail-flick test; 30 min after treatment): 2.9 ± 0.4 s
tail-flick (rat tail-flick test; 45 min after treatment): 3.0 ± 0.3 s
